Measured values published in US20150025131A1 (priority 2013, published 2015).
Converted amounts (≈) assume the structure as drawn. “Also recorded” adds a separate entry of the source.

How the values were obtained:
[1] = MTT cytotoxicity assay, MDBK; format: cell-based, bovine; settings: bovine, MDBK bovine kidney cells, 48 h incubation, read-out: Cytotoxicity (IC50 μg/mL) MDBK cells
Protocol: (§1) Cell cytotoxicity assay was performed using three different cell lines NIH 3T3 (mouse embryo, fibroblast cells), CC1 (rat, epithelial, liver cell) and MDBK (bovine kidney) cells using MTT (3-[4,5-dimethylthiazole-2-yl]-2,5-diphenyl-tetrazolium bromide) colorimetric assay. Briefly 3T3 were grown in DMEM, supplemented with 10% of fetal bovine serum (FBS), and 1% penicillin-streptomycin whereas CC1 (rat epithelial liver cells) were cultured in EMEM, 2 mM Glutamine, 1% Non-Essential Amino Acids (NEAA), 20 mM HEPES, 10% Foetal Bovine Serum (FBS) and 1% penicillin-streptomycin, and MDBK cells were grown in 10% of fetal bovine serum (FBS) in 75 cm^2 flask, and incubated in 5% CO2 incubator at 37° C. until they attain 70% confluency. Cells were then harvested by centrifuging at 200 g for 5 min at 25° C., counted using heamocytometer and their concentration was adjusted to 6×10^4 cells/mL. 100 μL of Cells were then plated in 96 well plate and incubated overnight. Next day the supernatant was carefully removed and 200 μL of fresh medium was added with three different concentration of compound (1, 10, 50) μg/mL. […] The extent of MTT reduction to formazan within cells was calculated by measuring the absorbance at 540 nm; using a micro plate reader (Spectra Max plus 340, Molecular Devices, Calif., USA). […] The percent inhibition was calculated by using the following formula: […]

MDBK bovine kidney cells = assay: MTT cytotoxicity assay, MDBK; format: cell-based
Protocol: as §1

[2] = test system: PHA activated T cells isolated from human peripheral blood; assay: Thymidine incorporation T cell proliferation assay (PHA activated); format: cell-based; settings: Homo sapiens, T-cell, 72 h, read-out: Human T cell proliferation (IC50 μg/mL)
Protocol: Heparinized blood was obtained by vein puncture aseptically from healthy volunteers (25-38 years age). Blood (10 mL) was mixed with incomplete RPMI, layered on 5 mL of Lymphocyte separation medium and centrifuged at 400 g for 20 min at room temperature. Buffy layer was collected and mixed with incomplete RPMI and centrifuged at 4° C. for 10 min at 300 g. Cells were obtained after the RBCs (if any) lysis using hypotonic solution, and washed at 4° C. for 10 min at 300 g. The cells were then suspended in complete RPMI containing 5% FBS and their concentration was adjusted to 2×10^6 cells/mL for T-cell proliferation assay.
Cell proliferation assay was conducted through standard thymidine incorporation technique. Briefly, isolated T-cells from peripheral blood of healthy individuals were plated at a concentration of 2×10^6 cells/mL in a round bottom 96-well tissue culture plates. Cells were stimulated with 7.5 μg/mL of PHA. […] The plate was then incubated for 72 hours at 37° C. in 5% CO2 incubator. After 72 hours, cultures were pulsed with 0.5 μCi/well tritiated thymidine (Amersham Pharmacia Biotech), and further incubated for 18 h. Cells were harvested onto a glass fiber filters using cell harvester (Innotech, Dottikon, Switzerland). The level of the thymidine incorporated into the cells was measured by a liquid scintillation counter (LS 6500, Beckman Coulter, Fullerton, Calif., USA). Results were expressed as mean count per minute (CPM). The inhibitory activity of compounds on T-lymphocyte proliferation was calculated using the following formula: […]

serum TNF-α = assay: Adjuvant induced arthritis model, serum TNF-α; format: in vivo, Sprague Dawley rats; settings: AIA rats, daily intraperitoneal; Patuletin 25 mg/kg, indomethacin 5 mg/kg
Protocol: (§2) All studies were carried out using Female Sprague Dawley (SD) rats weighing 150-250 gms. Animals were kept at 21±2° C. and on a 12-h light/dark cycle, received standardized pelleted diet and tap water. Experiments were performed under the ethical guidelines of the International Association for the study of pain in conscious animals. Each group contains 12 animals with randomly distributed weights into each treatment group.
(§3) Arthritis was induced by injecting freshly prepared 100 μL of 1 mg suspension of lyophilized Mycobacterium tuberculosis H37Ra (MT H37Ra; DIFCO Laboratories, Detroit, Mich., USA), subcutaneously at the rat tail base using sterile hypodermic needle. Inoculation was carried out under anesthesia with a combination of 20 mg/kg ketamine and 5 mg/kg xylazine, injected intraperitoneally. Compound and the reference drug were administered daily, intraperitoneally using sterile syringes. The positive control received vehicle (5% DMSO+PBS) or saline only; treatment groups received test compounds (25 mg/kg), whereas reference group received indomethacin (5 mg/kg). The doses of the test compounds were selected after preliminary dose finding studies. […]
(§4) The quantitative measurement of TNF-α and IL-1β was done in serum of all groups of animals including arthritic and non-arthritic using commercial ELISA assay kits (Abcam, USA) according to the manufacturer's instructions. […]

serum IL-1β = assay: Adjuvant induced arthritis model, serum IL-1β; format: in vivo, Sprague Dawley rats; settings: AIA rats, daily intraperitoneal; Patuletin 25 mg/kg, indomethacin 5 mg/kg
Protocol: as §2, §3, §4

serum nitric oxide = assay: Adjuvant induced arthritis model, serum nitric oxide; format: in vivo, Sprague Dawley rats; settings: AIA rats, daily intraperitoneal; Patuletin 25 mg/kg, indomethacin 5 mg/kg
Protocol: as §2
Arthritis was induced by injecting freshly prepared 100 μL of 1 mg suspension of lyophilized Mycobacterium tuberculosis H37Ra (MT H37Ra; DIFCO Laboratories, Detroit, Mich., USA), subcutaneously at the rat tail base using sterile hypodermic needle. […]
Peroxide (PO) and nitric oxide (NO), in serum were determined in the serum samples of both the normal and arthritic groups, using quantitative colorimetric assay kits, i.e., the Quantichrom ™ Nitric Oxide Assay Kit, and the Quantichrome™ Peroxide assay kit Diox-250 (BioAssay Systems, Hayward, Calif., USA). […] The samples were analyzed in duplicates using 96-well plate and the plate was read at 540 nm. The Quantichrome™ Peroxide assay kit Diox −250 system is an improved method which utilizes the oxidation of Fe^++ by peroxide present in the analyzed sample resulting in formation of purple complex that gives the accurate measure of peroxide level in the sample when read at 540-610 nm.

## COc1c(O)cc2oc(-c3ccc(O)c(O)c3)c(O)c(=O)c2c1O [Patuletin, 3,5,7,3′,4′-pentahydroxy-6-methoxy flavones]
[1]
  IC50 at 48 h: 12.6 ± 0.4 µg/mL (≈ 37.9 µM)
MDBK bovine kidney cells
  cytotoxicity on MDBK bovine kidney cells (in words): no cytotoxicity
[2]
  IC50: 1.2 µg/mL (≈ 3.61 µM)
Serum TNF-α
  level of TNF-α in serum versus arthritic control group: marked decrease
Serum IL-1β
  level of IL-1β in serum versus arthritic control group: significant decrease; also recorded: marked decrease
Serum nitric oxide
  level of nitric oxide in serum versus arthritic control group: marked reduction; also recorded: significant decrease
